Laboratory results from EP4782445A1, “CDK KINASE INHIBITOR AND USE THEREOF” (Abbisko Therapeutics Co., Ltd., priority 2023, dated 2025).

Legend:
CDK2/cyclin E1 = target: T1, CDK2/cyclin E1 (Homo sapiens, UniProt P24941); assay: In vitro biochemical kinase activity assay for CDK2/cyclin E1 (HTRF); conditions: 1 µM ATP
T1 construct: purchased Carna
Method: I. In Vitro Biochemical Kinase Activity Assay for CDK2/Cyclin E1
The inhibitory effects of the compounds of the present invention on CDK2/cyclin E1 kinase activity were determined using a homogeneous time-resolved fluorescence (HTRF) assay. The experimental process was as follows: • 1. The kinase reaction was carried out in a 384-well plate. 15 nM CDK2/cyclin E1 kinase (Carna), 1 µM ATP, and 1 µM biotin-labeled substrate protein ATF2-biotin (Cisbio) were incubated at room temperature for 90 min in a buffer system composed of 10 mM MgCl2, 1 mM MnCl2, 1 mM DTT, and basal kinase buffer (Cisbio). • 2. The detection solution (Cisbio, containing reagents that specifically recognize phosphorylated ATF2 and ATF2-biotin proteins, respectively) was added. The plate was then sealed with a film (to protect from light and volatilization) and incubated at 25°C for 60 min. • 3. The plate was transferred to an Envision plate reader to detect fluorescence resonance energy transfer (FRET) signals. (The 665/615 ratio was calculated by reading the emission at 665 nm and 615 nM, respectively.) • 4. The IC50 values were determined by analyzing the inhibition at varying compound concentrations using Model 205 in the XLfit software.

CDK4/cyclin D3 = target: T2, CDK4/cyclin D3 (Homo sapiens, UniProt P11802); assay: In vitro biochemical kinase activity assay for CDK4/cyclin D3 (HTRF)
T2 construct: purchased Carna
T2 sequence (P11802 whole entry): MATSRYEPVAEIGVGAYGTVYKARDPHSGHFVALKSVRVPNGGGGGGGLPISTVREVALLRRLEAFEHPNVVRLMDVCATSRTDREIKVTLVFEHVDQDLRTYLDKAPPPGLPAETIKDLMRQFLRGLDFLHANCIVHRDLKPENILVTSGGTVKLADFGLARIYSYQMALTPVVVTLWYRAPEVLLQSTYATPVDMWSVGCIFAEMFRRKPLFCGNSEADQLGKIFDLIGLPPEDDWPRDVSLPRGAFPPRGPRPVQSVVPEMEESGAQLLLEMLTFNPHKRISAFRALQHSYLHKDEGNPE
T2 sequence (P30281 whole entry partner): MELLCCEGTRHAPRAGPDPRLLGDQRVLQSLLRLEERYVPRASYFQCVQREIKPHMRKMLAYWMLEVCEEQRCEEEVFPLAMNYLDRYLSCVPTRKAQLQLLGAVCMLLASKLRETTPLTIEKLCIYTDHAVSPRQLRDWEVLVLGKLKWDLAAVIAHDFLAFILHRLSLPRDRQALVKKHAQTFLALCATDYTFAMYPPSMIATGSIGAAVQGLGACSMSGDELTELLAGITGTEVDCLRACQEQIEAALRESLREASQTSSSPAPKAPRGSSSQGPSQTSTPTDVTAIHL
Method in brief: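 HTRF kinase reaction: 4.9 nM CDK4/cyclin D3, 1 mM (or 80 µM) ATP and 0.3 µM Rb-biotin substrate, 90 min at 30°C in buffer with 50 mM MgCl2 and 1 mM DTT.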

CDK6/cyclin D3 = target: T3, CDK6/cyclin D3 (Homo sapiens, UniProt Q00534); assay: In vitro biochemical kinase activity assay for CDK6/cyclin D3 (HTRF)
T3 construct: purchased Carna
T3 sequence (Q00534 whole entry): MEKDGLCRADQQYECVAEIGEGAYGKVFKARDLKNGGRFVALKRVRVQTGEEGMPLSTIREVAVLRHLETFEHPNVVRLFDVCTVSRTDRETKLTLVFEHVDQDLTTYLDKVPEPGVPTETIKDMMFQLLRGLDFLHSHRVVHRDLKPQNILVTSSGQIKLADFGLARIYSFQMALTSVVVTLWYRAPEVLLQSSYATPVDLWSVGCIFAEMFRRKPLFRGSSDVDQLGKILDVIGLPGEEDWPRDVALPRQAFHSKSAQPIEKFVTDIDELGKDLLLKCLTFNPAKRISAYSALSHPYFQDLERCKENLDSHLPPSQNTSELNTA
T3 sequence (P30281 whole entry partner): as the sequence (P30281 whole entry partner) above
Method in brief: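 HTRF assay: 0.02 nM CDK6/cyclin D3 incubated with 1 mM (or 100 µM) ATP and 0.3 µM Rb-biotin substrate at 30°C for 60 min in kinase buffer with 5 mM MgCl2 and 1 mM DTT.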

[1] = unmarked data: 80 µM ATP in Step 1
[2] = unmarked data: 100 µM ATP in Step 1
[3] = data marked with *: 1 mM ATP in Step 1

Row | IC50 (CDK2/cyclin E1) | IC50 (CDK4/cyclin D3; [1]) | IC50 (CDK6/cyclin D3; [2]) | IC50 (CDK4/cyclin D3; [3]) | IC50 (CDK6/cyclin D3; [3]) | Compound
1 | 3630 nM | 6.2 nM | 24.2 nM |  |  | CC(=O)c1ncc(C#Cc2nc(N[C@@H]3CCOC[C@H]3O)ncc2Cl)n1C(C)C [Example 1, 1-(5-((5-chloro-2-(((3S,4R)-3-hydroxytetrahydro-2H-pyran-4-yl)amino)pyrimidin-4-yl)ethynyl)-1-isopropyl-1H-imidazol-2-yl)ethan-1-one]
2 | 1320 nM |  |  |  |  | CC(C)n1c(C#Cc2nc(N[C@@H]3CCOC[C@H]3O)ncc2Cl)cnc1C(C)(C)O [Example 2, (3S,4R)-4-((5-chloro-4-((2-(2-hydroxypropan-2-yl)-1-isopropyl-1H-imidazol-5-yl)ethynyl)pyrimidin-2-yl)amino)tetrahydro-2H-pyran-3-ol]
3 | 467 nM |  |  |  |  | CC(C)n1c(C#Cc2nc(N[C@H]3CCOC[C@@H]3O)ncc2Cl)cnc1C(C)(C)O [Example 3, (3R,4S)-4-((5-chloro-4-((2-(2-hydroxypropan-2-yl)-1-isopropyl-1H-imidazol-5-yl)ethynyl)pyrimidin-2-yl)amino)tetrahydro-2H-pyran-3-ol]
4 | 236 nM | 0.56 nM | 3.04 nM |  |  | CC(C)n1c(C#Cc2nc(N[C@@H]3CCN(S(C)(=O)=O)C[C@H]3O)ncc2Cl)cnc1C(C)(C)O [Example 24, (3R,4R)-4-((5-chloro-4-((2-(2-hydroxypropan-2-yl)-1-isopropyl-1H-imidazol-5-yl)ethynyl)pyrimidin-2-yl)amino)-1-(methanesulfonyl)piperidin-3-ol]
5 | 125 nM | 1.14 nM | 11.4 nM |  |  | CC(C)n1c(C#Cc2nc(N[C@@H]3CCOC[C@H]3O)ncc2Cl)cnc1[C@H](C)O [Example 30, (3 S,4R)-4-((5-chloro-4-((2-((S)-1-hydroxyethyl)-1-isopropyl-1H-imidazol-5-yl)ethynyl)pyrimidin-2-yl)amino)tetrahydro-2H-pyran-3-ol]
6 | 590 nM | 7.85 nM | 47.1 nM |  |  | CC(C)n1c(C#Cc2nc(N[C@@H]3CCOC[C@H]3O)ncc2Cl)cnc1[C@@H](C)O [Example 31, (3 S,4R)-4-((5-chloro-4-((2-((R)-1-hydroxyethyl)-1-isopropyl-1H-imidazol-5-yl)ethynyl)pyrimidin-2-yl)amino)tetrahydro-2H-pyran-3-ol]
7 | 539 nM | 19 nM | 131 nM |  |  | CNCc1ncc(C#Cc2nc(N[C@@H]3CCOC[C@H]3O)ncc2Cl)n1C(C)C [Example 35, (3 S,4R)-4-((5-chloro-4-((1-isopropyl-2-((methylamino)methyl)-1H-imidazol-5-yl)ethynyl)pyrimidin-2-yl)amino)tetrahydro-2H-pyran-3-ol]
8 | 1970 nM | 30.8 nM | 299 nM |  |  | CC(C)NCc1ncc(C#Cc2nc(N[C@@H]3CCOC[C@H]3O)ncc2Cl)n1C(C)C [Example 40, (3 S,4R)-4-((5-chloro-4-((1-isopropyl-2-((isopropylamino)methyl)-1H-imidazol-5-yl)ethynyl)pyrimidin-2-yl)amino)tetrahydro-2H-pyran-3-ol]
9 | 1850 nM | 1.83 nM | 11 nM |  |  | CCN1CCN(Cc2ccc(Nc3ncc(Cl)c(C#Cc4cnc(C(C)(C)O)n4C(C)C)n3)nc2)CC1 [Example 41, 2-(5-((5-chloro-2-((5-((4-ethylpiperazin-1-yl)methyl)pyridin-2-yl)amino)pyrimidin-4-yl)ethynyl)-1-isopropyl-1H-imidazol-2-yl)propan-2-ol]
10 | 2930 nM | 6.22 nM | 24.2 nM |  |  | CC(=O)c1ncc(C#Cc2nc(N[C@@H]3CCOC[C@H]3O)ncc2Cl)n1C(C)C [Example 52, 1-(5-((5-chloro-2-(((3 S,4R)-3-hydroxytetrahydro-2H-pyran-4-yl)amino)pyrimidin-4-yl)ethynyl)-1-isopropyl-1H-imidazol-2-yl)ethan-1-one]
11 | 493 nM | 60.9 nM | 192 nM |  |  | CC(C)n1c(C#Cc2nc(N[C@@H]3COC[C@H]3O)ncc2Cl)cnc1C(C)(C)O [Example 53, (3 S,4R)-4-((5-chloro-4-((2-(2-hydroxypropan-2-yl)-1-isopropyl-1H-imidazol-5-yl)ethynyl)pyrimidin-2-yl)amino)tetrahydrofuran-3-ol]
12 |  |  |  | 17 nM | 75.8 nM | CC(C)n1c(C#Cc2nc(N[C@@H]3CCOC[C@H]3O)ncc2Cl)cnc1N1CCOC1=O [Example 126, 3-(5-((5-chloro-2-(((3S,4R)-3-hydroxytetrahydro-2H-pyran-4-yl)amino)pyrimidin-4-yl)ethynyl)-1-isopropyl-1H-imidazol-2-yl)oxazolidin-2-one]
13 |  |  |  | 137 nM | 455 nM | Cn1ncc(C#Cc2nc(N[C@@H]3CCOC[C@H]3O)ncc2Cl)c1C(C)(C)C [Example 127, (3 S,4R)-4-((4-((5-(tert-butyl)-1-methyl-1H-pyrazol-4-yl)ethynyl)-5-chloropyrimidin-2-yl)amino)tetrahydro-2H-pyran-3-ol]
14 |  |  |  | 53.3 nM | 254 nM | CC(C)c1c(C#Cc2nc(N[C@@H]3CCOC[C@H]3O)ncc2Cl)cnn1CC(F)F [Example 128, (3 S,4R)-4-((5-chloro-4-((1-(2,2-difluoroethyl)-5-isopropyl-1H-pyrazol-4-yl)ethynyl)pyrimidin-2-yl)amino)tetrahydro-2H-pyran-3-ol]
15 |  |  |  | 1.48 nM | 21 nM | CC(C)n1c(C#Cc2nc(N[C@@H]3CCN(S(C)(=O)=O)C[C@H]3O)ncc2Cl)cnc1CN1CCC[C@H](O)C1 [Example 129, (3R,4R)-4-((5-chloro-4-((2-(((S)-3-hydroxypiperidin-1-yl)methyl)-1-isopropyl-1H-imidazol-5-yl)ethynyl)pyrimidin-2-yl)amino)-1-(methanesulfonyl)piperidin-3-ol]
16 |  |  |  | 23.5 nM | 222 nM | CN(C)c1c(C#Cc2nc(N[C@@H]3CCOC[C@H]3O)ncc2Cl)cnn1C [Example 130, (3 S,4R)-4-((5-chloro-4-((5-(dimethylamino)-1-methyl-1H-pyrazol-4-yl)ethynyl)pyrimidin-2-yl)amino)tetrahydro-2H-pyran-3-ol]
17 |  |  |  | 23.2 nM | 684 nM | CC(C)n1c(C#Cc2nc(N[C@@H]3CCOC[C@H]3O)ncc2Cl)cnc1CC1(N)CCCC1 [Example 131, (3S,4R)-4-((4-((2-((1-aminocyclopentyl)methyl)-1-isopropyl-1H-imidazol-5-yl)ethynyl)-5-chloropyrimidin-2-yl)amino)tetrahydro-2H-pyran-3-ol]
18 |  |  |  | 93.7 nM | 243 nM | CC1CCOc2ncc(C#Cc3nc(N[C@@H]4CCOC[C@H]4O)ncc3Cl)n21 (stereo partly drawn) [Example 132, (3 S,4R)-4-((5-chloro-4-((5-methyl-6,7-dihydro-5H-imidazo[2,1-o][1,3]oxazin-3-yl)ethynyl)pyrimidin-2-yl)amino)tetrahydro-2H-pyran-3-ol]
19 |  |  |  | 177 nM | 275 nM | CC1CCN(C)c2ncc(C#Cc3nc(N[C@@H]4CCOC[C@H]4O)ncc3Cl)n21 (stereo partly drawn) [Example 135, (3 S,4R)-4-((5-chloro-4-((5,8-dimethyl-5,6,7,8-tetrahydroimidazo[1,2-a]pyrimidin-3-yl)ethynyl)pyrimidin-2-yl)amino)tetrahydro-2H-pyran-3-ol]
20 |  | 10.3 nM | 39.3 nM |  |  | CC(C)(C)n1cncc1C#Cc1nc(N[C@@H]2CCOC[C@H]2O)ncc1Cl [Example 136, (3S,4R)-4-((4-((1-(tert-butyl)-1H-imidazol-5-yl)ethynyl)-5-chloropyrimidin-2-yl)amino)tetrahydro-2H-pyran-3-ol]
21 |  |  |  | 3.17 nM | 53 nM | [2H]C([2H])(c1ncc(C#Cc2nc(Nc3ccc(CN4CCN(CC)CC4)cn3)ncc2Cl)n1C(C)C)N1CCC[C@H](O)C1 [Example 137, (S)-1-((5-((5-chloro-2-((5-((4-ethylpiperazin-1-yl)methyl)pyridin-2-yl)amino)pyrimidin-4-yl)ethynyl)-1-isopropyl-1H-imidazol-2-yl)methyl-d2)piperidin-3-ol]
22 |  |  |  | 5.92 nM | 38.4 nM | [2H]C(C)(O)c1ncc(C#Cc2nc(N[C@@H]3CCOC[C@H]3O)ncc2Cl)n1C(C)C (stereo partly drawn) [Example 138, (3 S,4R)-4-((S-chloro-4-((2-(1-hydroxyethyl-1-d)-1-isopropyl-1H-imidazol-5-yl)ethynyl)pyrimidin-2-yl)amino)tetrahydro-2H-pyran-3-ol]

Row | Compound | IC50 (CDK2/cyclin E1) | IC50 (CDK4/cyclin D3; [1]) | IC50 (CDK6/cyclin D3; [2]) | IC50 (CDK4/cyclin D3; [3]) | IC50 (CDK6/cyclin D3; [3])
23 | (3 S,4R)-4-((5-chloro-4-((1-(1, 1-difluoropropan-2-yl)-1H-imidazol-5-yl)ethynyl)pyrimidin-2-yl)amino)tetrahydro-2H-pyran-3-ol [Example 134] |  |  |  | 36.1 nM | 230 nM
24 | (3S,4R)-4-((5-chloro-4-((1-(1, 1-difluoropropan-2-yl)-2-(2-hydroxypropan-2-yl)-1H-imidazol-5-yl)ethynyl)pyrimidin-2-yl)amino)tetrahydro-2H-pyran-3-ol [Example 133] |  |  |  | 260 nM | 1140 nM
